# Columns and labels:
# Type in all cases: cell-based
# [1] = system: Escherichia coli (NBRC 3972); test: Test for antimicrobial activity with neutralization, viable cell count (Example 2); details: 20% aqueous solution, neutralized
# Experimental: (§1) After said strains were cultured in SCD agar medium at 35±2° C. for 18 to 24 hours, inocula were prepared by suspending the stains in sterile purified water and adjusting the turbidity so as to correspond with No. 1 MacFarland. Using agar plate, the concentrations of the inocula were measured according to the agar plate mixed dilution method (Table 3). 3 mL of each of 20% aqueous solution of the test compound, a stock solution of a comparative compound and sterile water, (control) was prepared (n=1). 0.03 mL of said inocula was inoculated into each of the test solutions at a room temperature. Immediately after, 15 minutes after and 180 minutes after the inoculations, neutralization was performed under the following conditions. 0.5 mL of the test solution was added to 4.5 mL of sterile sodium hydrate solution at the concentration of 0.25 mol/L (sodium hydrate; manufactured by Wako Pure Chemical Industries, Ltd.), and mixed. Then, 45 mL of a sterile phosphate buffer (Pro-media MV2-1000, manufactured by ELMEX) was immediately added and mixed. 0.5 mL of the test solution was added to 4.5 mL of sterile sodium hydrate solution at the concentration of 2.0 mol/L, and mixed. Then, 45 mL of a sterile phosphate buffer was immediately added and mixed. A ten-fold dilution series of each of the neutralization solution was prepared. Then, the number of the viable cells therein was measured and it was converted to the number of viable cells per 1 mL of the test solutions or control. The number of viable cell was measured according to “Viable cell count; the agar plate mixed dilution method in the Japanese Pharmacopoeia, 14th revised edition”.
# [2] = system: Staphylococcus aureus subsp. aureus (NBRC 13276); test: as above; details: 20% aqueous solution, neutralized
# Experimental: as §1
# [3] = system: Salmonella Enteritidis (NBRC 3313); test: as above; details: 20% aqueous solution, neutralized
# Experimental: as §1
# [4] = system: Escherichia coli (NBRC 3972); test: Test for antimicrobial activity, viable cell count (Example 1); details: room temperature
# Experimental: (§2) After said strains were cultured in SCD agar medium at 35±2° C. for 18 to 24 hours, inocula were prepared by suspending the cultured stains in sterile purified water and adjusting the turbidity so as to correspond with No. 1 MacFarland. Using agar plates, the concentrations of the inocula were measured according to the agar plate mixed dilution method (Table 1). 3 mL of each of the 10%, 1.0% and 0.1% aqueous solutions of the test compound, and of sterile purified water (control) were prepared (n=1). 0.03 mL of said inocula was inoculated into each of the test solutions at room temperature. Immediately after, 15 minutes after, and 180 minutes after the inoculations, 0.5 mL of each of the test solutions was added to 49.5 mL of a sterile phosphate buffer (Pro-media MV2-1000, manufactured by ELMEX), and mixed. A ten fold dilution series of each of the mixtures was constructed. Then, the number of the viable cells therein were measured, and then it was converted to the number of viable cells per 1 mL of the test solutions or control. The number of viable cell was measured according to “Viable cell count; the agar plate mixed dilution method in the Japanese Pharmacopoeia, 14th revised edition”.
# [5] = system: Staphylococcus aureus subsp. aureus (NBRC 13276); test: as above; details: room temperature
# Experimental: as §2
# [6] = system: Salmonella Enteritidis (NBRC 3313); test: as above; details: room temperature
# Experimental: as §2
compound,measurement,setting,value
"O=C(O)c1cc(C(=O)O)oc(=O)c1 [test compound, 2H-pyran-2-on-4,6-dicarbonic acid]","number of viable cells, Measured 15 min. after inoculation",[1]; 15 min. after inoculation,<100 cfu/mL
same,"number of viable cells, Measured 180 min. after inoculation",[1]; 180 min. after inoculation,<100 cfu/mL
same,"number of viable cells, Measured immediately after inoculation",[1]; immediately after inoculation,<100 cfu/mL
same,"number of viable cells, Measured 15 min. after inoculation",[2]; 15 min. after inoculation,<100 cfu/mL
same,"number of viable cells, Measured 180 min. after inoculation",[2]; 180 min. after inoculation,<100 cfu/mL
same,"number of viable cells, Measured immediately after inoculation",[2]; immediately after inoculation,<100 cfu/mL
same,"number of viable cells, Measured 15 min. after inoculation",[3]; 15 min. after inoculation,<100 cfu/mL
same,"number of viable cells, Measured 180 min. after inoculation",[3]; 180 min. after inoculation,<100 cfu/mL
same,"number of viable cells, Measured immediately after inoculation",[3]; immediately after inoculation,<100 cfu/mL
same,"number of viable cells, Measured 15 min. after inoculation",[4]; 0.1% aqueous solution,<100 cfu/mL
same,"number of viable cells, Measured 180 min. after inoculation",[4]; 0.1% aqueous solution,<100 cfu/mL
same,"number of viable cells, Measured immediately after inoculation",[4]; 0.1% aqueous solution,"10,000 cfu/mL"
same,"number of viable cells, Measured 15 min. after inoculation",[4]; 1.0% aqueous solution,<100 cfu/mL
same,"number of viable cells, Measured 180 min. after inoculation",[4]; 1.0% aqueous solution,<100 cfu/mL
same,"number of viable cells, Measured immediately after inoculation",[4]; 1.0% aqueous solution,<100 cfu/mL
same,"number of viable cells, Measured 15 min. after inoculation",[4]; 10% aqueous solution,<100 cfu/mL
same,"number of viable cells, Measured 180 min. after inoculation",[4]; 10% aqueous solution,<100 cfu/mL
same,"number of viable cells, Measured immediately after inoculation",[4]; 10% aqueous solution,<100 cfu/mL
same,"number of viable cells, Measured 15 min. after inoculation",[5]; 0.1% aqueous solution,<100 cfu/mL
same,"number of viable cells, Measured 180 min. after inoculation",[5]; 0.1% aqueous solution,<100 cfu/mL
same,"number of viable cells, Measured immediately after inoculation",[5]; 0.1% aqueous solution,"11,000 cfu/mL"
same,"number of viable cells, Measured 15 min. after inoculation",[5]; 1.0% aqueous solution,<100 cfu/mL
same,"number of viable cells, Measured 180 min. after inoculation",[5]; 1.0% aqueous solution,<100 cfu/mL
same,"number of viable cells, Measured immediately after inoculation",[5]; 1.0% aqueous solution,"5,000 cfu/mL"
same,"number of viable cells, Measured 15 min. after inoculation",[5]; 10% aqueous solution,<100 cfu/mL
same,"number of viable cells, Measured 180 min. after inoculation",[5]; 10% aqueous solution,<100 cfu/mL
same,"number of viable cells, Measured immediately after inoculation",[5]; 10% aqueous solution,<100 cfu/mL
same,"number of viable cells, Measured 15 min. after inoculation",[6]; 0.1% aqueous solution,<100 cfu/mL
same,"number of viable cells, Measured 180 min. after inoculation",[6]; 0.1% aqueous solution,<100 cfu/mL
same,"number of viable cells, Measured immediately after inoculation",[6]; 0.1% aqueous solution,"12,000 cfu/mL"
same,"number of viable cells, Measured 15 min. after inoculation",[6]; 1.0% aqueous solution,<100 cfu/mL
same,"number of viable cells, Measured 180 min. after inoculation",[6]; 1.0% aqueous solution,<100 cfu/mL
same,"number of viable cells, Measured immediately after inoculation",[6]; 1.0% aqueous solution,<100 cfu/mL
same,"number of viable cells, Measured 15 min. after inoculation",[6]; 10% aqueous solution,<100 cfu/mL
same,"number of viable cells, Measured 180 min. after inoculation",[6]; 10% aqueous solution,<100 cfu/mL
same,"number of viable cells, Measured immediately after inoculation",[6]; 10% aqueous solution,<100 cfu/mL

# Reference: patent US20100004469A1, “ANTIMICROBIAL AGENTS AND MICROBICIDAL AGENTS” (KABUSHIKI KAISHA TOYOTA JIDOSHOKKI, priority 2006, published 2010)
